Results on three molecules are retold here after ChEMBL document CHEMBL1201862, “PubChem BioAssay data set” (2004).

Activity calls are given as the source filed them. Some results are limits rather than exact numbers.

One experiment addresses T1, Hexokinase HKDC1 (Homo sapiens, UniProt Q2TB90).
T1 sequence (Q2TB90 whole entry): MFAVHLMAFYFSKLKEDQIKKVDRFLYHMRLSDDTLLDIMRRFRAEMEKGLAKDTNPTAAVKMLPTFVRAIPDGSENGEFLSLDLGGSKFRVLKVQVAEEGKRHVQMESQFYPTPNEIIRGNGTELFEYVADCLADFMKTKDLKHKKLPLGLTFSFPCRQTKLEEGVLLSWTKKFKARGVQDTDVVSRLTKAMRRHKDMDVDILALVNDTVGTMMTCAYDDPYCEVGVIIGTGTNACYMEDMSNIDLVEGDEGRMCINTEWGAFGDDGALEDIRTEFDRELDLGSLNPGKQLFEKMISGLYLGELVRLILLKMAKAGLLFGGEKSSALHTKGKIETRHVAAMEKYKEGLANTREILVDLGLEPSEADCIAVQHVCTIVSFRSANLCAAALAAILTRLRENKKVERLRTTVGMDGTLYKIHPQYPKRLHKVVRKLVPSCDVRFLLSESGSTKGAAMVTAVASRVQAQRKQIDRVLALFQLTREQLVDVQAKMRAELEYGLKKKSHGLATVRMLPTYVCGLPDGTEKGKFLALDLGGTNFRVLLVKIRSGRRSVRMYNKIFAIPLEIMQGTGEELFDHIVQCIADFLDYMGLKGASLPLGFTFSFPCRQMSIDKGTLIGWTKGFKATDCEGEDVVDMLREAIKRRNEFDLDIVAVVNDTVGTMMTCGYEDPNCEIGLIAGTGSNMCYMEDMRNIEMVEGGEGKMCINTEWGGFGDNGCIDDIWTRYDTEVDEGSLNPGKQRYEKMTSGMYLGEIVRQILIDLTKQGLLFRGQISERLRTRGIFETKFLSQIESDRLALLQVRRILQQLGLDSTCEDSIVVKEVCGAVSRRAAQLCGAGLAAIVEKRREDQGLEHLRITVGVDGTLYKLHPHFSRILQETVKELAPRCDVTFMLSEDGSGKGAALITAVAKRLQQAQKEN
Kind of experiment: inhibition of HKDC1 glucose phosphorylation – biochemical, W721R variant, dose response (AID 504729). It is filed as functional.

The test system of the next experiment is Vero. Kind of experiment: viability of Vero cells under compound – cytotoxicity control for flavivirus capping enzyme inhibitors (AID 588742). Conditions: Chlorocebus sabaeus. It is filed as functional.
Experiment [1] addresses ATP-dependent molecular chaperone HSP82 (Candida albicans (strain WO-1) (Yeast), UniProt C4YTQ8). Briefly: steroid-induced GRE reporter decrease in yeast – S. cerevisiae, luminescence, Hsp90 inhibitor project, dose response (AID 2400).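 Note: beta-galactosidase luminescence from glucocorticoid response element reporter as proxy for Hsp90 function; inhibitor potency where signal loss means Hsp90 inhibition.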 It is filed as functional, cell-based.
Experiment [2] can be described thus: Counterscreen for AddAB inhibitors: absorbance-based bacterial cell-based high throughput dose response assay for inhibitors of bacterial viability. [Related pubchem assays (depositor defined):AID435030, AID449728, AID449731, AID488942, AID488955, AID488956]. It is filed as functional. (In general: The purpose of a counterscreen is to sort out artefacts and off-target activity.)

Experiment [3] has as its target Protein kinase C theta type (Homo sapiens, UniProt Q04759). Kind of experiment: Navigating the Kinome. Panel member name: PRKCQ. It counts as functional.
The target of experiment [4] is Tyrosine-protein kinase JAK2 (Homo sapiens, UniProt O60674). It is filed as functional.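 Note: JAK2 tested as one member of a kinase panel.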
Chain of Tyrosine-protein kinase JAK2 (O60674 whole entry): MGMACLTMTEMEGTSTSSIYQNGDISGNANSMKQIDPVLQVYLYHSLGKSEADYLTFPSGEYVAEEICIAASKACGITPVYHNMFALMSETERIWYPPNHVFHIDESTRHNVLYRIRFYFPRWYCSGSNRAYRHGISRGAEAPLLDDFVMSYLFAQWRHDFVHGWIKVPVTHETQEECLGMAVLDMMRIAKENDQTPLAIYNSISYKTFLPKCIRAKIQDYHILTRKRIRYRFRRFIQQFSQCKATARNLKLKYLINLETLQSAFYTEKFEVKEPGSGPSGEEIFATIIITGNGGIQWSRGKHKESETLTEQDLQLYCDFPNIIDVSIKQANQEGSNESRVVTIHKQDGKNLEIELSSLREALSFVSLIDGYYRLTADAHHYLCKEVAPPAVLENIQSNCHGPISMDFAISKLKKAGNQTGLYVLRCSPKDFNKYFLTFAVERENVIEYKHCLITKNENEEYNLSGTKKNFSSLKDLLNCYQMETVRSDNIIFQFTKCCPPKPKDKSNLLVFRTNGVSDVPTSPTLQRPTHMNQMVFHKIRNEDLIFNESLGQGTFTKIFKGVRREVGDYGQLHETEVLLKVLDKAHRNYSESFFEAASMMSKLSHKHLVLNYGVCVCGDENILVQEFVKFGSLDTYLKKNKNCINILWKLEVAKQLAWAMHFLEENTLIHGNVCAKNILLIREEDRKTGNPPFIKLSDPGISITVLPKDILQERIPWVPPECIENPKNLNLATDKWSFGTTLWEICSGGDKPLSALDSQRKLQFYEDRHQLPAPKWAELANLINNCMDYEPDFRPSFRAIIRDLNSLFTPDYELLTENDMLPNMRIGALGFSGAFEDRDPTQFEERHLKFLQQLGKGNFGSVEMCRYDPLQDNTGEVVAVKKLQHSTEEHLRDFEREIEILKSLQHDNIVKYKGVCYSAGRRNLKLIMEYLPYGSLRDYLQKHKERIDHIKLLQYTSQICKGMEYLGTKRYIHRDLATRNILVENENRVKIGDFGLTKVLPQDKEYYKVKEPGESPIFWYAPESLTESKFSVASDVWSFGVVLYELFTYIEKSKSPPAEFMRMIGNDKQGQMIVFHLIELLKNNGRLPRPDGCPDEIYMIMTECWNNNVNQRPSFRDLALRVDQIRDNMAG
Experiment [5] has as its target Dual specificity mitogen-activated protein kinase kinase 1 (Homo sapiens, UniProt Q02750). Briefly: Navigating the Kinome. Panel member name: MAP2K1. It is filed as functional.
For experiment [6], the target named is Tyrosine-protein kinase BTK (Homo sapiens, UniProt Q06187). It is filed as functional.
Experiment [7] addresses Serine/threonine-protein kinase TBK1 (Homo sapiens, UniProt Q9UHD2). Briefly: Navigating the Kinome. Panel member name: TBK1. It is filed as functional.
For experiment [8], the target named is Dual specificity tyrosine-phosphorylation-regulated kinase 1B (Homo sapiens, UniProt Q9Y463). Kind of experiment: Navigating the Kinome. Panel member name: DYRK1B. It is filed as functional.
In experiment [9] the target is Vascular endothelial growth factor receptor 1 (Homo sapiens, UniProt P17948). It is filed as functional.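 Note: measured within a kinome-wide profiling panel, FLT1 as the panel member.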
Chain of Vascular endothelial growth factor receptor 1 (P17948 whole entry): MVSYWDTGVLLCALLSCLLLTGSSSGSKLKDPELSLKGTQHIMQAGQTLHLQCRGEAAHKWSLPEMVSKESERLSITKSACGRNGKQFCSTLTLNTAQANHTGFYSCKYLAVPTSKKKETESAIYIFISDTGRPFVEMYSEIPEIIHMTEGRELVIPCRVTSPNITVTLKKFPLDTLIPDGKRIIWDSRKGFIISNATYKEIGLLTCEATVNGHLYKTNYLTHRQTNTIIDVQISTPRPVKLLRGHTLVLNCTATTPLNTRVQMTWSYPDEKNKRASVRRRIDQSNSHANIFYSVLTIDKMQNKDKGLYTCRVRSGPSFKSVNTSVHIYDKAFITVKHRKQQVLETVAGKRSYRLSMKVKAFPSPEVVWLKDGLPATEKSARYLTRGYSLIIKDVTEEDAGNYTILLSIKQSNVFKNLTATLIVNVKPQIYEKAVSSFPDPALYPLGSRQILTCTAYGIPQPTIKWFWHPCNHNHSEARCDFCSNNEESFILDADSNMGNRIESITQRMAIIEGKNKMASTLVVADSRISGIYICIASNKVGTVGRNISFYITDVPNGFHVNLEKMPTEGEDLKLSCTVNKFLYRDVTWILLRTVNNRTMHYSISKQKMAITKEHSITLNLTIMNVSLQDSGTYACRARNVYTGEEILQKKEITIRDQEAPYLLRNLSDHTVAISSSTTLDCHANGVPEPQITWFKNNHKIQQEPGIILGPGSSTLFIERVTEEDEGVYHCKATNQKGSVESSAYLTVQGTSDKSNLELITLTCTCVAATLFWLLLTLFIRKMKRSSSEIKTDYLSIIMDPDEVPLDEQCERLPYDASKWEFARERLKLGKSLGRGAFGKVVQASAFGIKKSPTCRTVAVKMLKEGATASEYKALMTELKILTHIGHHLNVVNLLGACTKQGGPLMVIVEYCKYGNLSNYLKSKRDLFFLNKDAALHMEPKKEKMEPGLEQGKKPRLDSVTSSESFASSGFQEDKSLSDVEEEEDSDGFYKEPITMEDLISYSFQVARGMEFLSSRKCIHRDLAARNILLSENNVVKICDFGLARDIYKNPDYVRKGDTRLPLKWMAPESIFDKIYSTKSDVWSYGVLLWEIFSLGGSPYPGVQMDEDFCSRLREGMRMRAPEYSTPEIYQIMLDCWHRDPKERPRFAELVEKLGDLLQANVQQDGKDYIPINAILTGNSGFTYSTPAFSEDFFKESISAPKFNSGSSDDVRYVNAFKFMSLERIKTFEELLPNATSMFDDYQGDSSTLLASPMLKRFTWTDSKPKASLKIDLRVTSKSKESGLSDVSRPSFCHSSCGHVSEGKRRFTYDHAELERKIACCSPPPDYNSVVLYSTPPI
Experiment [10] deals with Tyrosine-protein kinase JAK3 (Homo sapiens, UniProt P52333). It counts as functional.
Experiment [11] has as its target Cyclin-dependent kinase 9 (Homo sapiens, UniProt P50750). It is filed as functional.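 Note: value from the CDK9 entry of a kinome-spanning kinase panel.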
Experiment [12] deals with Mitogen-activated protein kinase 10 (Homo sapiens, UniProt P53779). Kind of experiment: Navigating the Kinome. Panel member name: MAPK10. It is filed as functional.
Chain of Mitogen-activated protein kinase 10 (P53779 whole entry): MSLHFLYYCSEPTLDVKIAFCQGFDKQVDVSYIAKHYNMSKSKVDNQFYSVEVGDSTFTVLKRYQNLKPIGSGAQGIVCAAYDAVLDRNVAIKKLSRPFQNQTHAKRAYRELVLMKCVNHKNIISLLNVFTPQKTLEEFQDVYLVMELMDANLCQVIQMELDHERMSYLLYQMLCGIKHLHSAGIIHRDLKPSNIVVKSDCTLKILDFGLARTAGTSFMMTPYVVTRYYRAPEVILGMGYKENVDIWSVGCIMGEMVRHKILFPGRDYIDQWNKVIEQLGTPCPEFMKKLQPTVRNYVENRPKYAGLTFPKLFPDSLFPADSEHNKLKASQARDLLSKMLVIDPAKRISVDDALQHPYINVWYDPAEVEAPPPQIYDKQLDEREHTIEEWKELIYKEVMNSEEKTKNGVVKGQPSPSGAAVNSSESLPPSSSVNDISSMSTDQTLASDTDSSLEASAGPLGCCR

Chain of Serine/threonine-protein kinase TBK1 (Q9UHD2 whole entry): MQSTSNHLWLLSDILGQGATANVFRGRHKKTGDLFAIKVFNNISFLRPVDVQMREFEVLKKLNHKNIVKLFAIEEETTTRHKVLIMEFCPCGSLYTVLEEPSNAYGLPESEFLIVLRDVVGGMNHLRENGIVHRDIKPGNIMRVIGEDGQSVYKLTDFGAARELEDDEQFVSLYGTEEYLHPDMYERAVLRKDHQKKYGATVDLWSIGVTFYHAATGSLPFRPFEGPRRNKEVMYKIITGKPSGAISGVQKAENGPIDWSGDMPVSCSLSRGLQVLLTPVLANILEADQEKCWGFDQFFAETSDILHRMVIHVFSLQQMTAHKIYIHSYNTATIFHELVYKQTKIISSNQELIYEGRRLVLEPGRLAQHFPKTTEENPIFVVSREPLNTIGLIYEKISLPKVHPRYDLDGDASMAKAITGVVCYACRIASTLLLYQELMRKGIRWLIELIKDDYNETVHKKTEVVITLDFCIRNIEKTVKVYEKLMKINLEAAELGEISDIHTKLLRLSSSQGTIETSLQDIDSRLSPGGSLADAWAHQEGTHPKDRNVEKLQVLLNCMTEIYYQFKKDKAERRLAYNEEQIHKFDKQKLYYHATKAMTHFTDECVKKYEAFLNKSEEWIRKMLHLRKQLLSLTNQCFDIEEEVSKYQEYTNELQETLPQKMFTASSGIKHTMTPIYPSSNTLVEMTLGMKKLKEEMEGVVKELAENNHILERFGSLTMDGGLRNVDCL
Chain of Dual specificity mitogen-activated protein kinase kinase 1 (Q02750 whole entry): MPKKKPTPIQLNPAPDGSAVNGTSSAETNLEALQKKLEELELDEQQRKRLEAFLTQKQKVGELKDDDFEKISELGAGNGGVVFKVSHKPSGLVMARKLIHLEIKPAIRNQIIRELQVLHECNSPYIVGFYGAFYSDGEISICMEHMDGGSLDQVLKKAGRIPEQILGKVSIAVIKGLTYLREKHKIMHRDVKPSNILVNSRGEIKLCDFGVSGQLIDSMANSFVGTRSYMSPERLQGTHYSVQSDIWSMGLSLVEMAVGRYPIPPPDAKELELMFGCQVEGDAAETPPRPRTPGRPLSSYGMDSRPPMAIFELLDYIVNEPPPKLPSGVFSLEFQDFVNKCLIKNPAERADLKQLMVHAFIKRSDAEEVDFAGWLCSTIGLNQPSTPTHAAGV
Chain of Protein kinase C theta type (Q04759 whole entry): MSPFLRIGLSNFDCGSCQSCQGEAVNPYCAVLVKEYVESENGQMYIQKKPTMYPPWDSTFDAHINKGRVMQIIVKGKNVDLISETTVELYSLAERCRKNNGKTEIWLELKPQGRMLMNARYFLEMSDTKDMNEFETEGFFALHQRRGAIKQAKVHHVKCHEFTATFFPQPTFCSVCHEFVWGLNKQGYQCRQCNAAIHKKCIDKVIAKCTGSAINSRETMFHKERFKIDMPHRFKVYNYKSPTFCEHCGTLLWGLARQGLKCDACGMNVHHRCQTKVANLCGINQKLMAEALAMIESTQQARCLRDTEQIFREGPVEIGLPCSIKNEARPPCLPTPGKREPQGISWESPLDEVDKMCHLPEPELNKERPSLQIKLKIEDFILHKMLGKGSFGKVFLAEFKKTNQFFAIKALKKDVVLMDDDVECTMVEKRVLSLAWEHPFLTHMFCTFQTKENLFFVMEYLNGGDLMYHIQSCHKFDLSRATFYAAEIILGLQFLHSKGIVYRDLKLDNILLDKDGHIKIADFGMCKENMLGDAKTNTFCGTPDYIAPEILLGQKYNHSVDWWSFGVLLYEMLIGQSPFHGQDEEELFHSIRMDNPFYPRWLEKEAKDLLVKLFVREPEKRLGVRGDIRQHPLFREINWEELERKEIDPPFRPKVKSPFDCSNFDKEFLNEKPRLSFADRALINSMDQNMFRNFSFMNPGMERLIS

The term IC50 denotes the concentration at which inhibition is half-maximal. The term CC50 denotes the concentration that lowers cell viability or growth by half. Consider `O=C(NC1=C(NC2CCS(=O)(=O)C2)C(=O)c2ccccc2C1=O)c1ccccc1` (centres undefined), for which the IC50 at Hexokinase HKDC1 was 5140 nM (active). The CC50 in the experiment with Vero was 7480 nM (active).
One may read the EC50 as the concentration at which the effect is half-maximal. On to `CCCC(=O)NC(c1ccc(N(C)C)cc1)c1ccc2cccnc2c1O` (centres undefined), for which the EC50 in experiment [1] was > 160000 nM (inactive). Besides, in experiment [2], the IC50 was > 119000 nM (inactive).
A word on the Ki: it is the equilibrium dissociation constant of an inhibitor or competing ligand from its target. In the case of `O=C1NC(=O)C(c2c[nH]c3ccccc23)=C1c1nc(N2CCNCC2)nc2ccccc12`, the Ki was 0.316 nM (active) in [3]; > 2510 nM (inactive) in [4]; 794 nM (active) in [5]; > 6310 nM (inactive) in experiment [6]; > 3160 nM (inactive) in [7]; > 2000 nM (inactive) in [8]. Besides, the Ki in [9] was > 2510 nM (inactive); in experiment [10], 1260 nM (active); in experiment [11] it was 316 nM (active); in [12], > 3160 nM (inactive).
